According to patent US4340602A, “Compositions inhibiting estrogen sulfotransferase activity” (Wayne State University, priority 1978, dated 1982):
Read-outs that look alike come from different tables or passages of the source.

Tests used:
[1] = in vitro; format: in vitro ADME, porcine; details: pig, minced uterus
Source text: (§1) Animals. Gilts (virgin female pigs) or sows (previously pregnant pigs) in estrus from the pig farm at Michigan State University were mated with boars of established fertility. Following insemination, the females were sacrificed at various times up to 25 days later. Uteri were removed and immediately chilled on ice. Fertilization was confirmed initially by microscopic examination of oviductal washings for fertilized ova (2-5 days following insemination) by histological inspection of the corpus luteum and uterus (8-13 days) and later (17-25 days) by gross inspection of the uterus for the amniotic sac and fetuses.
(§2) Radioisotopes. [6,7-^3 H]E2 (45 Ci/mmol) was obtained from New England Nuclear Corp., Boston, Mass., and purified on ITLC-SA (Gelman Instrument Co.) with CHCl3 :CH3 OH (97:3) as the developing solvent. Na2^35 SO4 (800-1000 mCi/mmol) was obtained from New England Nuclear Corp. and used directly from the bottle.
(§3) Incubation and isolation of [^3 H]E2 and Na2^35 SO4 metabolites. Samples of whole uterus (400 mg), minced in 0.9% saline, were filtered over medium coarse nylon gauze and placed in 2.5 ml of a modified Krebs-Ringer bicarbonate buffer (MgCl2 instead of MgSO4) with glucose (1.5 mg/ml). After the [6,7-^3 H]E2 (3×10^-9 M) and Na2^35 SO4 (1×10^-4 M) were added, the mixture was incubated for 2 hr at 37° C. under […]. The incubate was then boiled for 2 min. to stop the enzymatic reactions. A control was included with each experiment, which contained all of the incubation mixture, and was carried throughout the entire procedure except for the actual incubation.
(§4) The filtered tissue was extracted in 2:1 CHCl3 :CH3 OH (10 ml) for 2 hr, and this extract, reduced almost to dryness, was recombined with the incubation supernatant. This combination in turn was extracted with ethyl acetate (2.5 ml, 3 times) at neutral pH in the presence of (NH4)2 SO4 (0.5 g/ml). The concentrated extract was applied to an alumina column in benzene. After the column was washed with benzene, the unconjugated estrogens were eluted with 100 ml ethanol and the estrogen sulfates with ethanol:water (1:1, 100 ml). The conjugated fraction was further separated from trailing free estrogens by a single development of instant thin layer chromatography (SG; chloroform:acetone:acetic acid, 110:35:6). Marker estrogen sulfates run simultaneously were identified by staining with 50% methylene blue reagent (25 mg % methylene blue in 0.05 N sulfuric acid) in acetone.
(§5) The estrogen sulfates were hydrolyzed with aryl sulfatase^3 (5 mg/10 ml) in 0.1 M sodium acetate buffer (pH 5) for two days at 37° C. (without shaking or mixing) and the estrogen moiety extracted into ether. Both the unconjugated estrogens and those hydrolyzed from sulfate esters were further purified by the procedure of Brooks et al, Biochim. Biophys. Acta, 104:250-260 (1965) and the metabolites identified and quantitated on instant thin layer chromatography (SA; chloroform:methanol, 97:3) in accordance with Pack et al (1974), supra.

[2] = system: uteri obtained from fertilized pigs; assay: in vitro; format: in vitro ADME, porcine; details: 0.003 µM
Source text: as §1, §2, §3, §4, §5

For `C[C@]12CC[C@@H]3c4ccc(O)cc4CC[C@H]3[C@@H]1CC[C@@H]2O` [1,3,5(10)Estratriene-3,17β-diol], the metabolised at 2 h, 0.003 µM ([1]; 2-hour incubation, day of insemination, read-out: sulfurylation of the 3-hydroxyl group, day of insemination) was 3%, the metabolised at 2 h, 0.003 µM ([1]; Table III mean line (SD ± 5.7 on next line), read-out: Percent of added E2 found as Free E1, mean) was 16.6% and the metabolised at 2 h, 0.003 µM ([1]; Table III, 25 (A), anovulatory gilt, 2 h incubation, read-out: Percent of added E2 found as Total E1, anovulatory gilt) was 12.9%. For the same compound, the “sulfurylation in gilt uterus” value ([2]; 2-hour incubation, 5 to 23 days following fertilization, P<0.05 vs sow) was 57.2±8.9%, the “sulfurylation in sow uterus” value ([2]; 2-hour incubation, 8 to 25 days following fertilization, P<0.05 vs gilt) was 41.2±6.0% and the “Percent of added E2 found as E1 S, mean” value ([2]; Table III mean line, days 5-25 (SD ± 6.4)) was 32.6%. The “Percent of added E2 found as Total E1, mean” value ([2]; Table III mean line, days 5-25 (SD ± 10.1)) was 49.8%, the “Percent of added E2 found as Free E1” value ([2]; Table III, 2 h incubation, 3×10^-9 M [3H]E2, by days following fertilization (S sow, G gilt), listed as E2, 120 min) was 16.4% and the “conversion of added labeled E2 to E1” value ([2]; metestrus, uteri from fertilized pigs) was 13.6%.
